{
  "source": "paper PMC11473290",
  "about": "“1,3,4-oxadiazoles as inhibitors of the atypical member of the BET family bromodomain factor 3 from Trypanosoma cruzi (TcBDF3)” (Frontiers in Microbiology, 2024)",
  "key": {"[1]": {"molecular_target": "T1, TcBDF3 (Trypanosoma cruzi, UniProt Q4DXV1)", "T1 sequence (Q4DXV1 entry or part of it)": "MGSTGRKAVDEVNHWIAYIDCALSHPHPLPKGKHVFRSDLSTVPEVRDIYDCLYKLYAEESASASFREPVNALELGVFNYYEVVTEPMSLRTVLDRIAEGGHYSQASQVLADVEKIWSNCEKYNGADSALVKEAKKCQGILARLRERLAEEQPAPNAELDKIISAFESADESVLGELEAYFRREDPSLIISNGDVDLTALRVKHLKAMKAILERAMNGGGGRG", "assay": "Thermal shift assay (DSF), dissociation constants", "assay_type": "binding", "details": "full-length TcBDF3; SD from three independent experiments", "experimental": "The proteins were buffered in 10-mM HEPES, pH 7.5, and 500 mM NaCl and assayed in a 48-well plate at a final concentration of 2 μM in a volume of 20 μL. Compounds were added at a final concentration between 1 and 200 μM to calculate dissociation constants. In this assay, A1B4, A1B4c, A5B4 and A5B4c were used. SYPRO Orange (Invitrogen) was added as a fluorescence probe at a dilution of 1:1000. The excitation and emission filters for the SYPRO Orange dye were set at 465 and 590 nm, respectively. The temperature was increased with steps of 2°C/min from 25°C to 96°C, and fluorescence readings were taken at each interval in a CFX Opus 96 Real-Time System (Biorad) and analyzed using Maestro Software (Biorad). The melting curves and average melting temperature for each condition were obtained and plotted in temperature vs. concentration graphs in GraphPad Prism 9.0. Plots were fitted using the differential fluorescence scanning (DSF) single binding site equation to obtain the dissociation constants (Kd) in GraphPad Prism 9.0."}, "[2]": {"system": "T. cruzi Dm28c epimastigotes", "assay": "Beta-galactosidase assay, epimastigotes", "assay_type": "cell-based, Trypanosoma cruzi", "details": "for SI (E), CC50/IC50 epimastigotes: CC50 Vero cells / IC50; for IC50: Dm28c strain expressing β-galactosidase, read-out: IC50 ± SD Epimastigotes", "experimental": "(§1) T. cruzi Dm28c that expresses the E. coli LacZ gene epimastigotes, trypomastigotes, and amastigotes were cultured and obtained as previously described ([Buckner et al., 1996]; [Alonso et al., 2021]). […] The controls included for the amastigotes (intracellular stage) were (a) uninfected cells and (b) infected with 1 μg/mL benznidazole (BZ) (positive control) and 1% DMSO to evaluate the toxicity of the solvent. For epimastigotes and trypomastigotes, the controls used were: 1-μg/ml benznidazole (BZ) (positive control) and 1% DMSO to evaluate solvent toxicity. Results obtained with this assay were verified by manually counting the parasites. The results were expressed as the percentage of inhibition of T. cruzi growth in compound-treated infected cells compared to untreated infected cells for amastigotes. For epimastigotes and trypomastigotes, treated and untreated cultured parasites were compared. Quadruplicates were run in the same microplate and repeated in three experiments. Half-maximal IC50 values were calculated using non-linear regression on GraphPad Prism 9.0, as previously described ([Alonso et al., 2021])."}, "[3]": {"molecular_target": "T1, TcBDF3", "assay": "Fluorescence polarization (FP) assay, displacement of BSP-AF488 probe", "assay_type": "binding", "details": "0.5 μM BSP-AF488, 100-μM TcBDF3", "experimental": "FP measurement was performed on a Cary Eclipse spectrophotometer equipped with a polarizer at an excitation wavelength of 488 nm and an emission wavelength of […] in a 3-ml fluorescence cuvette. The essay was set at a final volume of 2 mL, 0.5 μM of BSP-AF488, 100-μM TcBDF3, phosphate pH = 8, glycerol 1%, and DMSO 0.5%. The FP values were plotted against the log of the compound concentrations in a non-linear regression model in GraphPad Prism 9.0 as previously described ([Zhang et al., 2002]). In this assay, A1B4, A1B4c, and A5B4c were used. Briefly, free and bound probes (BSP-AF488 in the presence of TcBDF3) were included in each replica. Since the intensity of the probe remains similar for all samples, the fraction of the probe bound to TcBDF3 is correlated to the mP value. Thus, the percentage of inhibition can be derived from the equation % inhibition =100[1 − (mP − mPf)/(mPb − mPf)], in which mPf is the free probe control and mPb is the bound probe control. Based on the percentage of inhibition, the inhibitory concentration (IC50), or the inhibitor concentration at which 50% of the bound probe is displaced, is obtained by fitting the inhibition data."}, "[4]": {"assay": "MTT assay, cell viability", "assay_type": "cell-based", "details": "African green monkey, Vero cells", "experimental": "The 3-(4,5-dimethylthiazol-2-yl)-2,5-diphenyltetrazolium bromide (MTT) reduction assay determined cell viability after treatment as previously described ([García et al., 2018]). Optical density (OD) was spectrophotometrically quantified (λ = 540 nm) using a Synergy HT multidetection microplate reader. DMSO was used as blank, and each treatment was performed in triplicates. The 50% cytotoxic concentration (CC50) values were calculated by non-linear regression on GraphPad Prism 9.0, and the selectivity indexes (SI) were determined as the ratio CC50/IC50 in all three life cycle stages."}, "[5]": {"system": "T. cruzi Dm28c amastigotes", "assay": "Beta-galactosidase assay, amastigotes in Vero cells", "assay_type": "cell-based, Trypanosoma cruzi", "details": "for SI (A), CC50/IC50 amastigotes: CC50 Vero cells / IC50; for IC50: Dm28c strain expressing β-galactosidase, 48 h postinfection of Vero cells, read-out: IC50 ± SD Amastigotes", "experimental": "as §1"}, "[6]": {"system": "T. cruzi Dm28c trypomastigotes", "assay": "Beta-galactosidase assay, trypomastigotes", "assay_type": "cell-based, Trypanosoma cruzi", "details": "for SI (T), CC50/IC50 trypomastigotes: CC50 Vero cells / IC50", "experimental": "as §1"}, "[7]": {"system": "TcBDF3m (Y123A and L130A)", "assay": "Tryptophan intrinsic fluorescence quenching assay", "assay_type": "binding, Trypanosoma cruzi", "details": "10-μM protein; 5, 10 and 20 μM compound; cut-off 0.9 normalized units", "experimental": "(§2) 96-well black microplates with 10-μM recombinant proteins (TcBDF3, TcBDF3m, TcBD3, and TcBD2) and three concentrations of each compound were used (5, 10, and 20 μM). In this assay, A1B4 and iBET-151 (positive control) were used. All determinations were made from the top with an excitation wavelength of 275 and a 340/30 nm emission filter, 50 reads per well, and a PMT-sensitivity setting of 180 in a Synergy HT multidetection microplate reader equipped with time-resolved capable optics. Each condition was tested in triplicates, and normalized maximum fluorescence intensityvs. Concentration was plotted using GraphPad Prism 9.0. The relative fluorescence intensity obtained to the condition without the inhibitor was normalized."}, "[8]": {"system": "TcBD3 (bromodomain of TcBDF3, amino acids 1-151)", "assay": "Tryptophan intrinsic fluorescence quenching assay", "assay_type": "binding, Trypanosoma cruzi", "details": "10-μM protein; 5, 10 and 20 μM compound; cut-off 0.9 normalized units", "experimental": "as §2"}, "[9]": {"system": "TcBD2 (recombinant bromodomain of TcBDF2)", "assay": "Tryptophan intrinsic fluorescence quenching assay", "assay_type": "binding, Trypanosoma cruzi", "details": "10-μM protein; 5, 10 and 20 μM compound; cut-off 0.9 normalized units", "experimental": "as §2"}, "[10]": {"system": "T. cruzi Dm28c epimastigotes", "set-up": "method as in García et al., 2018", "details": "already published, ref García et al., 2018, cited from earlier work"}, "[11]": {"system": "T. cruzi Dm28c amastigotes", "set-up": "method as in García et al., 2018", "details": "already published, ref García et al., 2018, cited from earlier work"}, "[12]": {"system": "Vero cells", "set-up": "method as in García et al., 2018", "details": "MTT; already published; ref García et al., 2018; cited from earlier work"}, "[13]": {"system": "T. cruzi Dm28c trypomastigotes", "set-up": "method as in García et al., 2018", "details": "already published, ref García et al., 2018, cited from earlier work"}, "[14]": {"molecular_target": "T1, TcBDF3", "details": "full-length TcBDF3; previously published; ref García et al., 2018; read-out: Kd ± SD DSF; cited from earlier work"}},
  "note": "Read-outs that look alike come from different tables or passages of the source.",
  "data": [
    {"smiles": "OCc1ccc(-c2nnc(-c3cccs3)o2)o1", "note": "[A5B4c, (5-(5-(thiophene-2-yl)-1,3,4-oxadiazol-2-yl)furan-2-yl)methanol]", "values": [
      {"measurement": "Kd", "setting": "[1]", "result": "4.8 ± 0.2", "unit": "µM"},
      {"measurement": "SI (E), CC50/IC50 epimastigotes", "setting": "[2]", "result": 21.3},
      {"measurement": "IC50", "setting": "[2]; Trypanosoma cruzi", "result": "14.8 ± 1.38", "unit": "µM"},
      {"measurement": "IC50", "setting": "[3]", "result": "10.5 ± 0.9", "unit": "µM"},
      {"measurement": "CC50", "setting": "[4]", "result": "316 ± 4.35", "unit": "µM"},
      {"measurement": "SI (A), CC50/IC50 amastigotes", "setting": "[5]", "result": 37},
      {"measurement": "IC50", "setting": "[5]; Trypanosoma cruzi, Vero, 48 h", "result": "8.49 ± 1.63", "unit": "µM"},
      {"measurement": "SI (T), CC50/IC50 trypomastigotes", "setting": "[6]", "result": 23.5},
      {"measurement": "IC50", "setting": "[6]; Trypanosoma cruzi, Dm28c strain expressing β-galactosidase, read-out: IC50 ± SD Tripomastigotes", "result": "13.4 ± 1.25", "unit": "µM"}
    ]},
    {"smiles": "COc1cc(-c2nnc(-c3cccs3)o2)ccc1O", "note": "[A1B4c, 2-methoxy-4-(5-(thiophen-2-yl)-1,3,4-oxadiazol-2-yl)phenol]", "values": [
      {"measurement": "melting point", "result": 224, "unit": "°C"},
      {"measurement": "Kd", "setting": "[1]", "result": "4 ± 0.3", "unit": "µM"},
      {"measurement": "SI (E), CC50/IC50 epimastigotes", "setting": "[2]", "result": 11},
      {"measurement": "IC50", "setting": "[2]", "result": "8.13 ± 0.87", "unit": "µM"},
      {"measurement": "IC50", "setting": "[2]; Trypanosoma cruzi", "result": "< 10", "unit": "µM"},
      {"measurement": "IC50", "setting": "[3]", "result": "8.4 ± 0.5", "unit": "µM"},
      {"measurement": "CC50", "setting": "[4]", "result": "90.8 ± 3.54", "unit": "µM"},
      {"measurement": "SI (A), CC50/IC50 amastigotes", "setting": "[5]", "result": 13},
      {"measurement": "IC50", "setting": "[5]", "result": "6.9 ± 0.67", "unit": "µM"},
      {"measurement": "IC50", "setting": "[5]; Trypanosoma cruzi, Vero, 48 h", "result": "< 10", "unit": "µM"},
      {"measurement": "SI (T), CC50/IC50 trypomastigotes", "setting": "[6]", "result": 54.4}
    ]},
    {"smiles": "COc1cc(/C=N/NC(=O)c2cccs2)ccc1O", "note": "[A1B4, (E)-N′-(4-hydroxy-3-methoxybenzylidene)thiophene-2-carbohydrazide]", "values": [
      {"measurement": "Binding (fluorescence quenching)", "setting": "[7]", "result": "did not bind"},
      {"measurement": "Binding (fluorescence quenching)", "setting": "[8]", "result": "binds"},
      {"measurement": "Binding (fluorescence quenching)", "setting": "[9]", "result": "did not bind"},
      {"measurement": "IC50", "setting": "[10]; Dm28c strain expressing β-galactosidase, read-out: IC50 ± SD Epimastigotes", "result": "23 ± 2.04", "unit": "µM"},
      {"measurement": "SI (E), CC50/IC50 epimastigotes", "setting": "[10]", "result": 11.7},
      {"measurement": "IC50", "setting": "[11]; Dm28c strain expressing β-galactosidase, read-out: IC50 ± SD Amastigotes", "result": "13.1 ± 1.43", "unit": "µM"},
      {"measurement": "SI (A), CC50/IC50 amastigotes", "setting": "[11]", "result": 20.5},
      {"measurement": "CC50", "setting": "[12]", "result": "269 ± 4.28", "unit": "µM"},
      {"measurement": "IC50", "setting": "[3]", "result": "2.4 ± 0.3", "unit": "µM"},
      {"measurement": "IC50", "setting": "[13]; Dm28c strain expressing β-galactosidase, read-out: IC50 ± SD Tripomastigotes", "result": "17.8 ± 2.13", "unit": "µM"},
      {"measurement": "SI (T), CC50/IC50 trypomastigotes", "setting": "[13]", "result": 15},
      {"measurement": "Kd", "setting": "[14]", "result": "1.7 ± 0.2", "unit": "µM"}
    ]},
    {"smiles": "O=C(N/N=C/c1ccc(CO)o1)c1cccs1", "note": "[A5B4, (E/Z)-N′-((5-(hydroxymethyl)furan-2-yl)methylene) thiophene-2-carbohydrazide]", "values": [
      {"measurement": "Kd", "setting": "[1]", "result": "136 ± 2.4", "unit": "µM"}
    ]}
  ]
}
